Data on 4 compounds can be found in publication PMC11833736 (ACS Pharmacology & Translational Science, 2025).

In series [1] the test system is U-87MG glioblastoma cells. In words: Cytotoxicity determined by MTT (3 mg/mL). The format is cell-based. The following applies: Homo sapiens, dark.
The test system of series [2] is A549 lung cancer cell lines. More on the design: method as in PMID 31625740, PMID 29220545, PMID 34378103. The following applies: cited from earlier work.
A further series deals with A375 skin melanoma. More on the design: method as in PMID 31625740, PMID 29220545, PMID 34378103. The following applies: cited from earlier work.
Series [3] has as its system SH-SY5Y cells. In words: Intracellular Ca content by ICP-MS, dark or green light. The format is cell-based. Particulars: kept in the dark. As for the experimental part: Six hours after compound addition, the cells were irradiated with green light or kept in the dark. Intracellular Ca^2+ levels were then assessed by ICP-MS 24 h after light activation. The NMDA and α-amino-3-hydroxy-5-methyl-4-isoxazole propionic acid (AMPA) receptors being glutamate-gated cation channels allow for an increase of calcium permeability of the neuron membrane; we also used L-glutamic acid (GA, 10 μM), a known NMDA and AMPA activator, as positive control in this assay.
(§1) 1 mL of SH-SY5Y cells were seeded in 12-well plates (Greiner, No. 665180; 500.000 cells per well). […] After an additional 24 h of incubation, the cells were trypsined, collected, and centrifuged. The resulting cell pellet was dissolved in 1 mL of PBS and counted via a BioRad TC20 automated cell counter. Afterward, the solution was centrifuged and washed again with PBS with subsequent centrifuging two more times. The resulting cell pellet was digested in 0.5 mL of HNO3 overnight in a hot oven (90 °C). The solution was diluted with Milli-Q water to 10 mL, and the Ru and Ca content [ppb] was measured via ICP-MS.

A short description of series [4]: Stability in the dark in the presence of L-glutathione (UV-vis). Particulars: water, 37 °C, 500 μM L-glutathione, spectra after 2 and 24 h. The format is physicochemical. The method, then:
The synthesis and characterization of all three complexes have been described earlier and can be found in refs ([56]) and ([57]). In water or OptiMEM cell medium, the complexes were also previously found to be stable in the dark for at least 24 h at 37 °C. Upon blue or green light irradiation (λ = 452 or 517 nm), they are activated by photosubstitution of the thioether ligand to afford the aqua ruthenium complex and the free thioether ligand.[56] […] The UV–vis spectra were then recorded after 2 and 24 h separately. […] Additionally, we could not observe any color change, which is typical when one of the ligands is exchanged against another one.
UV–vis spectroscopy experiments were performed on a Cary 60 Varian spectrometer equipped with a temperature control set to 310 K and a magnetic stirrer. The measurements were performed in a quartz cuvette containing 3 mL of solution. […] Then, the UV–vis spectrum was recorded without the presence of GSH. After 4 min, GSH was added (0.5 mM) and UV–vis spectra were recorded directly after and after 2 and 24 h, while the vial was kept in the dark and at 37 °C.

Series [5] has as its system SH-SY5Y cells. Nature of the series: Cytotoxicity, SRB end-point assay, dark or green light. The format is cell-based.
Series [6] relates to SH-SY5Y cells. In words: Ru cellular uptake by ICP-MS, dark or green light. The series is classed as in vitro ADME. Particulars: 20 μM, kept in the dark. The method, then:
These surprising results led us to further investigate whether the uptake of the respective compounds plays a pivotal role in the alternation of the proliferation. […] The complex was allowed to incubate for 24 h after irradiation before the ruthenium cellular content was analyzed by ICP-MS. […] We finally decided to incubate the SH-SY5Y cells with the EC50 values obtained from the cytotoxicity experiment using the U-87MG cell, as those procedures would allow one to observe the effect of the prodrug on the healthy neuron-like cells when treated with the phototoxic compound dose. […] Overall, cellular uptake in neuron-like SH-SY5Y cells followed the same trends as those for GBM cells U-87MG in the dark, while uptake was much higher after light activation.
as §1

The target of a further series is AChE (Electrophorus electricus, UniProt O42275). The source says: Among all enzymes involved in transmembrane signaling, another important one is AChE. In a modified procedure (for further details, see the Experimental Section), we checked whether the ruthenium complexes were able to inhibit AChE in the dark and after light activation. The colorimetric assay used Ellman’s reagent. […] The conversion of 5,5′-dithiobis(2-nitrobenzoic acid) (DTNB) to yellow 2-nitro-5-thiobenzoate (TNB) initiated by the addition of acetylthiocholine was then detected by UV–vis spectroscopy every 5 min for a total time of […]. […] The solution was further diluted 1:50 in 50 mM Tris buffer, pH = 8 (10 μL in 490 μL), and then placed in 4.5 mL of 50 mM Tris buffer, pH = 8. […] 50 μL of the enzyme and 50 μL of the complex solution were added to a 96-well plate in triplicates. […] Meanwhile, a 10 mM solution of acetylthiocholine iodide and 10 mM DTNB was prepared. After the respective time, in each well, 5 μL of the acetylthiocholine iodide and DTNB mixture was added. The absorbance was read at a microplate Tecan reader at 410 nm every 5 min for in total 40 min.

For series [7], the system named is U-87MG glioblastoma cells. Nature of the series: Cytotoxicity, SRB end-point assay, dark or green light. The following applies: read-out: EC50,D, kept in the dark, 24 h + 48 h incubation, normoxic (21% O2).
A further series relates to U-87MG cells. Nature of the series: Ru cellular uptake by ICP-MS. The series is classed as in vitro ADME. The following applies: 10 μM; for Ru cellular uptake: dark. The text has this:
The cellular accumulation of Ru^2+ can provide additional information about how differences in anticancer efficacy may relate to the amount of the Ru prodrug in the cell before light activation. For instance, low uptake often leads to limited cytotoxicity due to limited access to the drug target. […] Similar results have been observed in A549 lung cancer cells previously.[56] […] For unknown reasons, it appears that the amine bridge in the i-diqa ligand facilitates the uptake of ruthenium compound [3](PF6)2.
Materials: 65% nitric acid (Suprapur, Merck) was used in the sample digestion process, while diluted 1% nitric acid (v/v) was employed as a carrying solution throughout the ICP measurements. For preparation of calibration and internal standards, National Institute of Standards and Technology (NIST)-traceable 1000 mg/L elemental standards were used (TraceCERT, Fluka). Approximately 18 MΩ cm^–1 water (Milli-Q) was employed in all sample preparation and analysis steps.
Instrumentation: Calibration standards were prepared in a Secuflow fume hood (SCALA) to prevent contamination by atmospheric particulates. The standard samples and measurement samples were analyzed for trace elements using the NexION 2000 (PerkinElmer) ICP-MS instrument equipped with a concentric glass nebulizer and a Peltier-cooled glass spray chamber. An SC2 DX autosampler (PerkinElmer) was connected to ICP-MS for sample introduction. Syngistix software for ICP-MS (v.2.5, PerkinElmer) was used for all data recording and processing. Five trace elemental calibration standards for ICP-MS analysis were prepared using NIST-traceable 1000 mg/L Ru standards: 0, 1, 5, 20, and 100 μg/L. Samples were analyzed without dilution in the original delivery containers to minimize the possibility of contamination. Here, 10 μg/L Rh and In were used as internal standards. To check the calibration, samples were analyzed with a blank measurement and a repeat measurement with one of the calibration standards.
Sample preparation: 1 mL of U-87MG cells were seeded in 12-well plates (Greiner, No. 665180; 400.000 cells per well). […] Afterward, the cells were trypsined, collected, and centrifuged. The resulting cell pellet was dissolved in 1 mL of PBS and counted via a BioRad TC20 automated cell counter. Afterward, the solution was centrifuged and washed again with PBS with subsequent centrifuging. This washing step was repeated twice. The resulting cell pellet was digested in 0.5 mL of 65% HNO3 overnight in a hot oven (90 °C). The solution was diluted with Milli-Q water to 10 mL, and the Ru content [ppb] was measured by ICP-MS.

“And” between values parts separate entries of the source, which are not always exact repeats. Equal entries are not always repeated.

Sequence of AChE (O42275 24-633): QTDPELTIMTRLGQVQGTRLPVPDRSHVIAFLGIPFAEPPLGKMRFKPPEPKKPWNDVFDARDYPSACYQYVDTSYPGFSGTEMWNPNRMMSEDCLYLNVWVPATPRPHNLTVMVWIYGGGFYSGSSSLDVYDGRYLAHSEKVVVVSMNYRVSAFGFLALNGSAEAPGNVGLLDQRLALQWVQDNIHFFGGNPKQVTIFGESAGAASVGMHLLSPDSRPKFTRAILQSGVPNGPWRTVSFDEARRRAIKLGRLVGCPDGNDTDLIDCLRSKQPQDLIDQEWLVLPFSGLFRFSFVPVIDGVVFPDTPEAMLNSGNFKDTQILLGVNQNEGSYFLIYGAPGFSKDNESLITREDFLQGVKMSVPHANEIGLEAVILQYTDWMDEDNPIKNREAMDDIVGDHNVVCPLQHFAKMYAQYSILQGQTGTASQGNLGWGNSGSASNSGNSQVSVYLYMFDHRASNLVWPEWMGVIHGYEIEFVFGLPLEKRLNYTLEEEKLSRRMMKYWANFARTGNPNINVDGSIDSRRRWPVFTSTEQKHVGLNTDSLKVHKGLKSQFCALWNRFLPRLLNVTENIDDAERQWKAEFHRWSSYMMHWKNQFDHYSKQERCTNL

Take `Cn1nnc2c(C(N)=O)ncn2c1=O` [temozolomide]: in series [1], the EC50 was greater than 100 µM.

Regarding `O.[Ru+2].c1ccc(-c2cccc(-c3ccccn3)n2)nc1.c1ccc(-c2ccccn2)nc1` [[4]^2+, [Ru(tpy)(bpy)(OH2)]^2+], the “toxicity (in words)” value (in [2]; in the series with A375 skin melanoma) was “nontoxic” in each case.

Take `N[C@@H](CCC(=O)O)C(=O)O` [L-glutamic acid, reference compound]: the “Ca uptake, Dark” value came to 322.84± 53 ng Ca/mio. cells in the series with SH-SY5Y cells [3] (10 μM) and 322 ng Ca/mio. cells in the series with SH-SY5Y cells [3] (10 μM, listed as Glutamate).

As for `CSCCO.F[P-](F)(F)(F)(F)F.F[P-](F)(F)(F)(F)F.[Ru+2].c1ccc(-c2cccc(-c3ccccn3)n2)nc1.c1ccc(-c2ccccn2)nc1` [[1](PF6)2], the “stability in the dark with GSH (UV-vis, in words)” value in series [4] is “no change suggesting ligand exchange on ruthenium was observed”. Also, in the series with SH-SY5Y cells [5] (in the dark), the “concentration required to block cell growth” value is greater than 40 µM. Besides, the EC50 with SH-SY5Y cells [5] (kept in the dark, SRB, normoxic (21% O2)) was greater than 100 µM; in series [7] it was greater than 100 µM. Moreover, the “Ru uptake, Dark” value in the series on SH-SY5Y cells [6] was 0.40 ± 0.25 ng Ru/mio. cells and 0.4 ng Ru/mio. cells. The same compound yielded a PI on AChE (AChE, IC50 dark / IC50 green light) greater than 2.2. The IC50 on AChE (read-out: IC50,D, isolated AChE, 30 min in the dark, read 35 min after DTNB addition) was greater than 15 µM. For the same compound, the “Ca uptake, Dark” value with SH-SY5Y cells [3] (20 μM) is 467.78 ± 122 ng Ca/mio. cells and 467 ng Ca/mio. cells. The results for the Uptake in % in the series on U-87MG cells (6 h) and with U-87MG cells (24 h) were 0.56% and 0.43%, respectively. Also, the Ru cellular uptake with U-87MG cells (6 h incubation) is 0.6 ng Ru/mio. cells and 0.60 ± 0.38 ng Ru/mio. cells; in the series with U-87MG cells (24 h incubation), 0.42 ng Ru/mio. cells and 0.42 ± 0.11 ng Ru/mio. cells. Also, the overall uptake in the series with U-87MG cells (one figure given for 6 and 24 h) amounted to 0.5%.

The EC50 is the concentration that produces a half-maximal response. As a reminder, the IC50 is the midpoint of a concentration-inhibition curve.
